Source: patent US7902354B2, “Lapachone compounds and methods of use thereof” (ArQule, Inc., priority 2006, dated 2011)
pIC50: −log10 of the molar value.

How the values were obtained:
[1] = test system: DLD-1 human colon carcinoma cells; assay: MTS cell viability assay, DLD-1 human colon carcinoma cells; type: cell-based; conditions: DLD-1, 4 h compound incubation, MTS, read-out: IC50 Values, Cancerous Cells, Colon DLD-1
E2F-1 = E2F-1 induction in HT-29 cells; type: cell-based, human
Source text: Another effect of the compounds of the present invention is the induction or elevation of activity (e.g. elevation of the level) of one or more checkpoint molecules (i.e., a member of the E2F family of transcription factors). Studies have shown that β-lapachone induces activation of E2F1 checkpoint pathway in nuclei of cancer cells but not in normal cells, resulting in the arrest of cancer cells in G1 and/or S phase. Several compounds of the present invention were effective in activating the E2F1 checkpoint pathway (e.g. elevation of E2F1 levels), thus causing G1 and/or S phase arrest. Furthermore, the compounds of the present invention have no significant toxic effects on normal cells (See. Table 1). The assays of the present invention as shown in Table 1 and methods of measuring induction of E2F1 activity and elevation of E2F1 levels can be carried out following the descriptions found in Li et al., (2003) Proc Natl Acad Sci USA. 100(5): 2674-8 and U.S. Patent Application Publication No. 2002/0169135, both incorporated herein by reference.

[2] = test system: A549 human lung carcinoma cells; assay: MTS cell viability assay, A549 human lung carcinoma cells; type: cell-based; conditions: A549, 4 h compound incubation, MTS, read-out: IC50 Values, Cancerous Cells, Lung A549
[3] = test system: K-562 human leukemia cells; assay: MTS cell viability assay, K-562 human leukemia cells; type: cell-based; conditions: K562, K-562, 4 h compound incubation, MTS, read-out: IC50 Values, Cancerous Cells, Leukemia K-562
[4] = test system: HT29 human colon cancer xenograft; assay: Colon cancer xenograft model (HT29) in athymic nude mice; type: in vivo
Protocol: Tumors were allowed to grow to approximately 70 mm^3 in size. Animals were randomized into two groups of eight animals per group. […] Drug or vehicle was administered every Monday, Wednesday and Friday for a total of nine doses (qMWFx3). Tumor size was evaluated periodically during the study. For each subject, tumor volume was calculated using the formula (L×W^2)/2 where L and W were the length and width of the tumor, respectively. The arithmetic mean tumor volume was calculated for each treatment group +/− standard error of the mean (SEM). […] Tumors were allowed to grow to approximately 90 mm^3 in size. Animals were randomized into three groups of eight animals per group. […] Drug or vehicle was administered every Monday, Wednesday and Friday for a total of nine doses (qMWFx3). Tumor size was evaluated periodically during the study. For each subject, tumor volume was calculated using the formula (L×W^2)/2 where L and W were the length and width of the tumor, respectively. The arithmetic mean tumor volume was calculated for each treatment group +/− standard error of the mean (SEM). […] Tumors were allowed to grow to approximately 60 mm^3 in size. Animals were randomized into two groups of eight animals per group. At day five post injection, mice with established tumors were treated intraperitoneally with either Compound 182 (40 mg/kg) or vehicle control. Drug or vehicle was administered every Monday, Wednesday and Friday for a total of nine doses (qMWFx3). Tumor size was evaluated periodically during the study. For each subject, tumor volume was calculated using the formula (L×W^2)/2 where L and W were the length and width of the tumor, respectively. The arithmetic mean tumor volume was calculated for each treatment group +/− standard error of the mean (SEM). […] Tumors were allowed to grow to approximately 50 mm^3 in size. Animals were randomized into three groups of five animals per group. At day eight post injection, mice with established tumors were treated intraperitoneally with either Compound 180 (40 mg/kg) or Compound 125 (40 mg/kg) and vehicle control. Drug or vehicle was administered every Monday, Wednesday and Friday for a total of twelve doses (qMWFx4). Tumor size was evaluated periodically during the study. For each subject, tumor volume was calculated using the formula (L×W^2)/2 where L and W were the length and width of the tumor, respectively. The arithmetic mean tumor volume was calculated for each treatment group +/−standard error of the mean (SEM).

[5] = test system: DU-145 human prostate carcinoma cells; assay: MTS cell viability assay, DU-145 human prostate carcinoma cells; type: cell-based; conditions: DU-145, 4 h compound incubation, MTS, read-out: IC50 Values, Cancerous Cells, Prostate DU-145
[6] = test system: HT-29 human colon carcinoma cells; assay: MTS cell viability assay, HT-29 human colon carcinoma cells; type: cell-based; conditions: 4 h compound incubation, read-out: IC50 Values, Cancerous Cells, Colon HT-29
[7] = test system: PACA-2 human pancreatic carcinoma cells; assay: MTS cell viability assay, PACA-2 human pancreatic carcinoma cells; type: cell-based; conditions: PACA-2, 4 h compound incubation, MTS, read-out: IC50 Values, Cancerous Cells, Pancreas PACA-2
[8] = test system: NCM-460 normal colon epithelial cells; assay: MTS cell viability assay, NCM-460 normal colon epithelial cells; type: cell-based; conditions: for pIC50: Homo sapiens, NCM460, NCM-460, 4 h compound incubation, MTS, read-out: IC50 Values, Normal Cells, Colon NCM-460; for Fold Selectivity (NCM-460/DLD1): ratio of IC50 NCM-460 / DLD1
[9] = 40 mg/kg intraperitoneally qMWFx3, HT29 xenograft
[10] = 48 mg/kg intraperitoneally qMWFx3, HT29 xenograft
[11] = 40 mg/kg intraperitoneally qMWFx4, HT29 xenograft

SMILES | pIC50 [1] | pIC50 [2] | pIC50 [3] | pIC50 [5] | pIC50 [6] | pIC50 [7] | E2F-1 Induction (HT-29) (E2F-1) | % T/C [4, 9] [%] | reduction of mean tumor volume compared to vehicle treated control [4, 9] [%] | pIC50 [8] | Fold Selectivity (NCM-460/DLD1) [8] | Opt. % T/C [4, 10] [%] | reduction of mean tumor volume compared to vehicle treated control [4, 10] [%] | % T/C [4, 11] [%] | reduction of mean tumor volume compared to vehicle treated control [4, 11] [%]
O=C1C(=O)c2ccccc2C2=C1SCC1(CCN(C(=O)Oc3ccc(F)cc3)CC1)O2 [Compound 97, 4-fluorophenyl 5,6-dioxo-5,6-dihydro-1′H-spiro[naphtho[1,2-b][1,4]oxathiine-2,4′-piperidine]-1′-carboxylate] | 5.36 | 4.59 | 5.37 | 5.18 | 4.90 | 5.31 | YES |  |  | 4.88 | 3.0 |  |  |  | 
O=C1C(=O)c2ccccc2C2=C1SCC1(CCN(C[C@@H](O)Cc3ccccc3)CC1)O2 [Compound 187, 1′-[(2S)-2-hydroxy-3-phenylpropyl]spiro[naphtho[1,2-b][1,4]oxathiine-2,4′-piperidine]-5,6-dione] | 5.68 | 5.29 | 5.57 | 5.52 | 5.26 | 5.72 | YES |  |  | 5.09 |  | 38 | 62 |  | 
O=C1C(=O)c2ccccc2C2=C1SCC1(CCN(C[C@@H](O)COc3ccc(F)cc3)CC1)O2 [Compound 181, 1′-[(2R)-3-(4-fluorophenoxy)-2-hydroxypropyl]spiro[naphtho[1,2-b][1,4]oxathiine-2,4′-piperidine]-5,6-dione] | 6.13 | 5.31 | 5.88 | 5.82 | 5.51 | 6.04 | Yes |  |  | 5.34 | 6.2 |  |  |  | 
O=C1C(=O)c2ccccc2C2=C1SCC1(CCN(C(=O)Oc3cccc(C(F)(F)F)c3)CC1)O2 [Compound 96, 3-(trifluoromethyl)phenyl 5,6-dioxo-5,6-dihydro-1′H-spiro[naphtho[1,2-b][1,4]oxathiine-2,4′-piperidine]-1′-carboxylate] | 4.50 | < 4.00 | 4.44 | 4.70 | 4.69 | 4.57 | Yes |  |  | 4.00 | 3.2 |  |  |  | 
O=C1C(=O)c2ccccc2C2=C1SCC1(CCN(C[C@H](O)COc3ccc(F)cc3)CC1)O2 [Compound 180, 1′-[(2S)-3-(4-fluorophenoxy)-2-hydroxypropyl]spiro[naphtho[1,2-b][1,4]oxathiine-2,4′-piperidine]-5,6-dione] | 6.15 | 5.45 | 5.84 | 5.83 | 5.66 | 6.02 | Yes |  |  | 5.45 | 5.0 |  |  | 58.3 | 41.7
O=C1C(=O)c2ccccc2C2=C1SCC1(CCN(CC(O)Cc3ccccc3)CC1)O2 (stereo not drawn) [Compound 163, 1′-(2-hydroxy-3-phenylpropyl)spiro[naphtho[1,2-b][1,4]oxathiine-2,4′-piperidine]-5,6-dione] | 6.15 | 5.37 | 6.00 | 5.86 | 5.35 | 6.12 | Yes |  |  | 5.55 | 4.0 |  |  |  | 
CC(C)(C)c1ccc(OC[C@H](O)CN2CCC3(CC2)CSC2=C(O3)c3ccccc3C(=O)C2=O)cc1 [Compound 185, 1′-[(2R)-3-(4-tert-butylphenoxy)-2-hydroxypropyl]spiro[naphtho[1,2-b][1,4]oxathiine-2,4′-piperidine]-5,6-dione] | 5.47 | 5.13 | 5.35 | 6.00 | 5.61 | 5.86 | YES |  |  | 4.86 | 4.1 |  |  |  | 

The next lines start with results.

pIC50 [1] | pIC50 [2] | pIC50 [3] | pIC50 [5] | pIC50 [6] | pIC50 [7] | SMILES | E2F-1 Induction (HT-29) (E2F-1) | % T/C [4, 9] [%] | reduction of mean tumor volume compared to vehicle treated control [4, 9] [%] | pIC50 [8] | Fold Selectivity (NCM-460/DLD1) [8] | Opt. % T/C [4, 10] [%] | reduction of mean tumor volume compared to vehicle treated control [4, 10] [%] | % T/C [4, 11] [%] | reduction of mean tumor volume compared to vehicle treated control [4, 11] [%]
5.89 | 5.19 | 5.49 | 5.89 | 5.68 | 5.88 | O=C1C(=O)c2ccccc2C2=C1SCC1(CCN(C[C@H](O)COc3ccc(Cl)cc3)CC1)O2 [Compound 182, 1′-[(2S)-3-(4-chlorophenoxy)-2-hydroxypropyl]spiro[naphtho[1,2-b][1,4]oxathiine-2,4′-piperidine]-5,6-dione] | Yes | 44.8 | 55.2 | 4.95 | 8.6 |  |  |  | 
5.85 | 5.42 | 5.84 | 5.86 | 5.66 | 5.97 | O=C1C(=O)c2ccccc2C2=C1SCC1(CCN(C(=O)c3ccc(Cl)c(Cl)c3)CC1)O2 [Compound 53, 1′-(3,4-dichlorobenzoyl)spiro[naphtho[1,2-b][1,4]oxathiine-2,4′-piperidine]-5,6-dione] | YES |  |  | 5.07 | 6.0 |  |  |  | 
5.98 | 5.51 | 5.62 | 6.10 | 5.41 | 6.15 | O=C1C(=O)c2ccccc2C2=C1SCC1(CCN(C[C@@H](O)COc3ccc(Cl)cc3)CC1)O2 [Compound 183, 1′-[(2R)-3-(4-chlorophenoxy)-2-hydroxypropyl]spiro[naphtho[1,2-b][1,4]oxathiine-2,4′-piperidine]-5,6-dione] | Yes |  |  | 4.99 | 9.8 |  |  |  | 
5.40 | 4.17 | 5.35 | 5.17 | 5.15 | 5.39 | O=C1C(=O)c2ccccc2C2=C1SCC1(CCN(Cc3c(F)cccc3Cl)CC1)O2 [Compound 129, 1′-(2-chloro-6-fluorobenzyl)spiro[naphtho[1,2-b][1,4]oxathiine-2,4′-piperidine]-5,6-dione] | Yes |  |  | 4.78 | 4.1 |  |  |  | 
5.68 | 5.34 | 5.41 | 5.41 | 5.24 | 5.47 | O=C1C(=O)c2ccccc2C2=C1SCC1(CCN(C(=O)c3cccc(Cl)c3)CC1)O2 [Compound 55, 1′-(3-chlorobenzoyl)spiro[naphtho[1,2-b][1,4]oxathiine-2,4′-piperidine]-5,6-dione] | Yes |  |  | 4.95 | 5.3 |  |  |  | 
5.21 | 4.83 | 5.05 | 5.34 |  | 5.38 | CC(O)(CN1CCC2(CC1)CSC1=C(O2)c2ccccc2C(=O)C1=O)c1ccccc1 (stereo not drawn) [Compound 177, 1′-(2-hydroxy-2-phenylpropyl)spiro[naphtho[1,2-b][1,4]oxathiine-2,4′-piperidine]-5,6-dione] |  |  |  | 4.69 | 3.3 |  |  |  | 
